{"source": "patent EP3277384B1", "about": "“SOLID ORAL CARE COMPOSITIONS” (Unilever IP Holdings B.V., priority 2015, dated 2016)", "test": "Approximate solubility of zinc salts", "conditions": "at 25C", "data": [{"substance": "Zinc oxide", "values": [{"measurement": "Approximate Solubility", "value": 5, "unit": "µg/mL"}]}]}
